# Patent US10913751B2, “1,3-diazo-4-oxa-[3.3.1]-bicyclic derivatives, process for their manufacture and their use as a medicament, in particular for treating diabetes” (UNIVERSITA' DI PISA, priority 2017, dated 2021)
# pEC50: −log10 of the molar value.
# Legend:
# GLP-1 receptor = experiment: ELISA assay of secreted GLP-1 forms (mSTC-1 GLP-1 sec CRC); format: cell-based; conditions: mSTC-1 cells, GLP-1 secretion, concentration-response curve, ELISA readout, FIG. 1; read-out: action as a GLP-1 receptor agonist (mSTC-1 GLP-1 sec CRC)
# Experimental: The biological activity of the synthesised compounds was measured with an ELISA assay.
# The biological activity of the compound (5S*,9R*)-9-phenyl-3-phenylacetyl-4-oxa-1,3-diazabicyclo[3.3.1]non-6-ene (Ib) as a GLP-1 receptor agonist was measured via an ELISA assay specifically modified in order to identify the forms of GLP-1 secreted.
pEC50 (GLP-1 receptor),melting point,SMILES
4.96,156 to 159 °C,"O=C(Cc1ccccc1)N1CN2CC=C[C@H](O1)[C@H]2c1ccccc1 (relative stereo) [Ib, (5S*,9R*)-9-phenyl-3-phenylacetyl-4-oxa-1,3-diazabicyclo[3.3.1]non-6-ene]"
–,68 to 70 °C,"CC[C@@H]1[C@@H]2C=CCN1CN(C(=O)Cc1ccccc1)O2 (relative stereo) [If, (5S*,9R*)-9-ethyl-3-phenylacetyl-4-oxa-1,3-diazabicyclo[3.3.1]non-6-ene]"
